Assay results: patent publication US20100298385A1, “PROTEIN KINASE INHIBITORS USEFUL FOR TREATMENT OF CANCERS” (priority 2007, published 2010)

Key:
Format in all cases: cell-based
HepG-2 = assay: MTT test, inhibition of cell proliferation; settings: Homo sapiens, HepG2, 72 hours
Description: (§1) Cell incubation: the cancer cells strains are incubated in RPMI 1640 with 10% FBS, grow along the wall at 37° C. under 5% CO2 incubator.
(§2) Sample solutions: First prepare material at 100 mM in DMSO, then diluted to DMSO 4.95% using 3% DMSO FBS solution.
(§3) MTT test: cancer cells are incubated at a density of 5×10^3 cells/well in 96 well cell Culture plate for 24 hours, then added different sample solutions for 72 hours. At the end of incubation, 5 mg/mL MTT 15 μL was added to each well and stayed for 4 hours, vacuumed the solution, added DMSO 150 μL, shaked for 10 minutes, tested at […] for the OD value in the spectrophotometer, and calculated the inhibition rate of cell proliferation.
(§4) Inhibition rate of cell proliferation=(control OD−sample OD)/control OD)*100%

U937 = assay: MTT test, inhibition of cell proliferation; settings: Homo sapiens, U-937, 72 hours
Description: as §1, §2, §3, §4

A431 = assay: MTT test, inhibition of cell proliferation; settings: Homo sapiens, A-431, 72 hours
Description: as §1, §2, §3, §4

MCF-7 = assay: MTT test, inhibition of cell proliferation; settings: Homo sapiens, MCF7, 72 h
Description: as §1, §2, §3, §4

K562 = assay: MTT test, inhibition of cell proliferation; settings: Homo sapiens, 72 hours
Description: as §1, §2, §3, §4

A549 = assay: MTT test, inhibition of cell proliferation; settings: Homo sapiens, 72 hours
Description: as §1, §2, §3, §4

Hela = assay: MTT test, inhibition of cell proliferation; settings: Homo sapiens, 72 hours
Description: as §1, §2, §3, §4

L929 = assay: MTT test, inhibition of cell proliferation; settings: Mus musculus, 72 hours
Description: as §1, §2, §3, §4

HL-60 = assay: MTT test, inhibition of cell proliferation; settings: Homo sapiens, 72 hours
Description: as §1, §2, §3, §4

KB = assay: MTT test, inhibition of cell proliferation; settings: Homo sapiens, 72 h
Description: as §1, §2, §3, §4

BGC-823 = assay: MTT test, inhibition of cell proliferation; settings: Homo sapiens, 72 hours
Description: as §1, §2, §3, §4

A375s-2 = assay: MTT test, inhibition of cell proliferation; settings: A375-S2, 72 hours
Description: as §1, §2, §3, §4

Bel-7402 = assay: MTT test, inhibition of cell proliferation; settings: Homo sapiens, 72 hours
Description: as §1, §2, §3, §4

cancer cells = assay: MTT test, positive controls on the different cells; settings: at 0.4, 0.8, 1.6, 3.2, and 6.4 μm/L
Description: as §1, §2, §3, §4

Row | IC50 (U937) [µM] | IC50 (A431) [µM] | IC50 (MCF-7; MCF-7, first listing (r2)) [µM] | IC50 (MCF-7; MCF-7, second listing (r6)) [µM] | IC50 (K562) [µM] | IC50 (A549) [µM] | IC50 (Hela) [µM] | IC50 (HL-60) [µM] | IC50 (KB; first listing (r12)) [µM] | IC50 (KB; second listing (r16)) [µM] | IC50 (BGC-823) [µM] | IC50 (A375s-2) [µM] | IC50 (Bel-7402) [µM] | SMILES | IC50 (HepG-2) [µM] | IC50 (L929) [µM] | inhibition for the different cells (cancer cells)
1 | ≤ 10 | 11 to 30 | 31 to 50 | 11 to 30 | 31 to 50 | 31 to 50 | 11 to 30 | ≤ 10 | 31 to 50 | 11 to 30 | 11 to 30 | 11 to 30 | ≤ 10 | CNC(=O)c1cc(Oc2ccc(CC(=O)Nc3ccc(Cl)c(C(F)(F)F)c3)cc2)ccn1 [Compound C, 4-(4-[(4-chloro-3-trifluoromethylphenylaminocarbonyl)-methyl]phenoxy)pyridin-2-carboxylic acid methylamide] | 11 to 30 | 31 to 50 | –
2 | 11 to 30 | 11 to 30 | ≤ 10 | ≤ 10 | 31 to 50 | 31 to 50 | 31 to 50 | 11 to 30 | 11 to 30 | 11 to 30 | 11 to 30 | 31 to 50 | ≤ 10 | CNC(=O)c1cc(Oc2ccc(NC(=O)Nc3nc(C)c(C(C)(C)C)s3)cc2)ccn1 [Compound A, 4-{4-[3-(5-tert-Butyl-4-methyl-thiazol-2-yl)-ureido]-phenoxy}-pyridine-2-carboxylic acid methylamide] | 11 to 30 | 31 to 50 | –
3 | – | – | – | – | – | – | – | – | – | – | – | – | – | O=P1(N(CCCl)CCCl)NCCCO1 (centres unmarked) [CYC, cyclophosphamide] | – | – | dose-dependent
4 | – | – | – | – | – | – | – | – | – | – | – | – | – | CC(=O)O[C@H]1C(=O)[C@@]2(C)[C@H]([C@H](OC(=O)c3ccccc3)[C@]3(O)C[C@H](OC(=O)[C@H](O)[C@@H](NC(=O)c4ccccc4)c4ccccc4)C(C)=C1C3(C)C)[C@]1(OC(C)=O)CO[C@@H]1C[C@@H]2O [Paclitaxel] | – | – | dose-dependent
